Measurements reported in ChEMBL document CHEMBL1155613, “Urinary metabolites of gallic acid in rats and their radical-scavenging effects on 1,1-diphenyl-2-picrylhydrazyl radical” (J Nat Prod, 2000).

What follows are molecules tested on Radical scavenging activity (assay: Antioxidant activity assessed as DPPH free radical scavenging activity).
Format: functional
`O=C1O[C@H]([C@@H](O)CO)C(O)=C1O` [ASCORBIC ACID] gave an EC50 of 16.6 µM.
With `Oc1cccc(O)c1O` [PYROGALLOL] the EC50 was 4.2 µM.
With `COc1c(O)cc(C(=O)O)cc1OS(=O)(=O)O` the EC50 was > 100 µM.
Molecule `Cc1c(C)c2c(c(C)c1O)CCC(C)(CCCC(C)CCCC(C)CCCC(C)C)O2` (racemic) [alpha-TOCHOPHEROL] has an EC50 of 19.9 µM.
With `COc1c(O)cccc1O` [2-METHOXYRESORCINOL] the EC50 was 99.6 µM.
With `COc1c(O)cccc1O[C@@H]1O[C@H](C(=O)O)[C@@H](O)[C@H](O)[C@H]1O` the EC50 was > 100 µM.
Molecule `O=C(O)c1cc(O)c(O)c(O)c1` [GALLIC ACID] has an EC50 of 4.2 µM.
With `COc1c(O)cc(C(=O)O)cc1O` the EC50 was > 100 µM.
